Laboratory results taken from ChEMBL document CHEMBL1148156, “Chemical constituents of Millettia taiwaniana: structure elucidation of five new isoflavonoids and their cancer chemopreventive activity” (2004).

Columns and labels:
Type in all cases: functional
[1] = test system: Mus musculus; test: Inhibition of DMBA-induced/TPA-promoted carcinogenesis in ICR mouse assessed as mouse bearing papillomas at 85 nmol administered 1 hr before TPA treatment measured after 8 weeks; set-up: scale not given: the % may be the effect or the level left
[2] = test system: Mus musculus; test: Inhibition of DMBA-induced/TPA-promoted carcinogenesis in ICR mouse assessed as mouse bearing papillomas at 85 nmol administered 1 hr before TPA treatment measured after 10 weeks; set-up: scale not given: the % may be the effect or the level left
[3] = test system: Mus musculus; test: Inhibition of DMBA-induced/TPA-promoted carcinogenesis in ICR mouse assessed as mouse bearing papillomas at 85 nmol administered 1 hr before TPA treatment measured after 20 weeks; set-up: scale not given: the % may be the effect or the level left
[4] = test system: Mus musculus; test: Inhibition of DMBA-induced/TPA-promoted carcinogenesis in ICR mouse assessed as number of skin papillomas per mouse at 85 nmol administered 1 hr before TPA treatment measured after 14 weeks
[5] = test system: Mus musculus; test: Inhibition of DMBA-induced/TPA-promoted carcinogenesis in ICR mouse assessed as number of skin papillomas per mouse at 85 nmol administered 1 hr before TPA treatment measured after 20 weeks

**Q.** Which Activity [1] does the source give for CC(C)=CCc1c2c(c(O)c3c(=O)c(-c4ccc(O)c(O)c4)coc13)C=CC(C)(C)O2 [AURICULASIN] here?
**A.** 13%

**Q.** And the Activity [2]?
**A.** 27%

**Q.** What about the Activity [3] of the same molecule?
**A.** 87%

**Q.** What about the Activity [4] of the same molecule?
**A.** <3

**Q.** What about the Activity [5] of the same molecule?
**A.** 4.9
